Test [1] has as its system Rattus norvegicus. The test is described as follows: Decrease in 5-HIAA level in Sprague-Dawley rat striatum at 2.4 umol/kg, sc by HPLC analysis relative to saline-treated control. The test is classed as functional. More on the design: scale not given: the % may be the effect or the level left.
The test system of test [2] is Rattus norvegicus. The experiment in a line: Increase in DOPAC level in Sprague-Dawley rat striatum at 2.4 umol/kg, sc by HPLC analysis relative to saline-treated control. In kind it is functional.
For test [3], the system named is Rattus norvegicus. The experiment in a line: Reduction in spontaneous locomotor activity in Sprague-Dawley rat at 2.4 umol/kg, sc measured after 15 to 60 mins relative to saline-treated control. The test is classed as functional. Further details: scale not given: the % may be the effect or the level left.
Test [4] deals with Rattus norvegicus. The test is described as follows: Increase in DOPAC level in sc dosed Sprague-Dawley rat striatum by HPLC analysis. In kind it is functional.
A short description of test [5]: Binding affinity to dopamine receptor.
A short description of test [6]: Binding affinity to 5-HT receptor.
Test [7] deals with Rattus norvegicus. The test is described as follows: Reduction in spontaneous locomotor activity in Sprague-Dawley rat at 100 umol/kg, sc measured after 15 to 60 mins relative to saline-treated control. The test is classed as functional. Further details: scale not given: the % may be the effect or the level left.
For test [8], the system named is Rattus norvegicus. The experiment in a line: Decrease in 5-HIAA level in Sprague-Dawley rat striatum at 100 umol/kg, sc by HPLC analysis relative to saline-treated control. The test is classed as functional. More on the design: scale not given: the % may be the effect or the level left.
Test [9] deals with Rattus norvegicus. The experiment in a line: Increase in DOPAC level in Sprague-Dawley rat striatum at 100 umol/kg, sc by HPLC analysis relative to saline-treated control. In kind it is functional.
Test [10] addresses T1, Amine oxidase [flavin-containing] A (Rattus norvegicus, UniProt P21396).
T1 sequence (P21396 whole entry): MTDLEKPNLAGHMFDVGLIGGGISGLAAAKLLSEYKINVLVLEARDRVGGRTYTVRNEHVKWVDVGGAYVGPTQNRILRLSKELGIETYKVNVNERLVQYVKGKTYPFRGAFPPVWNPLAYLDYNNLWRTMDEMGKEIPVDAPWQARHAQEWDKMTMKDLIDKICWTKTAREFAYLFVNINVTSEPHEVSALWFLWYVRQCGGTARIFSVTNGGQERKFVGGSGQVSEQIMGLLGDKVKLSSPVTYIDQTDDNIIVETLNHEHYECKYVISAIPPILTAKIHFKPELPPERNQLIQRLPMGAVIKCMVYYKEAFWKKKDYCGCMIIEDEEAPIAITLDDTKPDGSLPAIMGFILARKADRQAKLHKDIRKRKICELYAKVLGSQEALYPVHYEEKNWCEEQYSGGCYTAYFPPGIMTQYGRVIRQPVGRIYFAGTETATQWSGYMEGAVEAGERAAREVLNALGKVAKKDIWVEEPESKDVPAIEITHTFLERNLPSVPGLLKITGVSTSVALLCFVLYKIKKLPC
The experiment in a line: Displacement of [3H]Ro 41-1049 from MAO-A in rat cerebral cortex by competition binding assay. The test is classed as tissue-based. Background: Displacement assays read how much labelled ligand stays bound in the presence of the test substance.

For test [11], the target named is Sodium-dependent serotonin transporter (Homo sapiens, UniProt P31645). The experiment in a line: Displacement of [3H]imipramine from human SERT expressed in CHO cells by competition binding assay. The following applies: read-out: Ki(app). In kind it is cell-based.
Sequence of Sodium-dependent serotonin transporter (P31645 whole entry): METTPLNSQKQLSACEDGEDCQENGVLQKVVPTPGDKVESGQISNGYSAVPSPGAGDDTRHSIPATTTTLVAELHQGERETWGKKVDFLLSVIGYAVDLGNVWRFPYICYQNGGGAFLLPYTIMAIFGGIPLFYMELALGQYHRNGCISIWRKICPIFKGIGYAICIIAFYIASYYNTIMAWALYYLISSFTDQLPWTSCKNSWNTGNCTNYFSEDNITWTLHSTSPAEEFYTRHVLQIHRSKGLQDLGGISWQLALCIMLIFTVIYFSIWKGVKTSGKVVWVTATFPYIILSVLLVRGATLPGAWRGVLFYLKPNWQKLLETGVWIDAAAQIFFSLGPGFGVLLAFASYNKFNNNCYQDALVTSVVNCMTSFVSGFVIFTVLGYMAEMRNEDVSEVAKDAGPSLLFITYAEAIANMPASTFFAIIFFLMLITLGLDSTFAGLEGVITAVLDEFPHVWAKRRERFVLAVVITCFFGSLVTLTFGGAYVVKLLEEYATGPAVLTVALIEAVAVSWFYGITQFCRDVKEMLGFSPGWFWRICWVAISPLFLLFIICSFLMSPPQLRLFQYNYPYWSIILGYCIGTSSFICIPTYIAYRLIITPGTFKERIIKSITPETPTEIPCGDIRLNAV
Test [12] has as its target T2, D(2) dopamine receptor (Homo sapiens, UniProt P14416). The experiment in a line: Displacement of [3H]7-OH-DPAT from human high affinity Dopamine D2S receptor by competition binding assay.
Test [13] has as its target T2, D(2) dopamine receptor. The test is described as follows: Displacement of [3H]methylspiperone from human low affinity Dopamine D2S receptor by competition binding assay.
Test [14] has as its target T3, 5-hydroxytryptamine receptor 1A (Homo sapiens) (UniProt P08908).
T3 sequence (whole entry): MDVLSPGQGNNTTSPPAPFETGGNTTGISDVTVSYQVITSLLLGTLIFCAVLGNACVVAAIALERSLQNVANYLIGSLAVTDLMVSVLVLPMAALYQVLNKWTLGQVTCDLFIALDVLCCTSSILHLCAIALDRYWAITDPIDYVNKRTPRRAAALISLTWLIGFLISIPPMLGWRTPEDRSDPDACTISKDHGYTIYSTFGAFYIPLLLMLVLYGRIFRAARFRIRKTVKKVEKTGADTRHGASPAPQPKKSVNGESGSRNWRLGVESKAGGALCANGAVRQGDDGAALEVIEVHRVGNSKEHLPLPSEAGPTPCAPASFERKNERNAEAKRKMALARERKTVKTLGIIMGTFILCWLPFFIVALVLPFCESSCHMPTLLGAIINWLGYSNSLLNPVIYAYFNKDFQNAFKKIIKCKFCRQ
The test is described as follows: Displacement of [3H]8- OH-DPAT from human 5-HT1A at 1 uM by CEREP assay.

Test [15] concerns the target Sodium-dependent dopamine transporter (Homo sapiens) (UniProt Q01959). The test is described as follows: Displacement of [3H]BTCP from human DAT at 1 uM by CEREP assay.
Test [16] deals with T4, D(4) dopamine receptor (Homo sapiens) (UniProt P21917).
T4 sequence (whole entry): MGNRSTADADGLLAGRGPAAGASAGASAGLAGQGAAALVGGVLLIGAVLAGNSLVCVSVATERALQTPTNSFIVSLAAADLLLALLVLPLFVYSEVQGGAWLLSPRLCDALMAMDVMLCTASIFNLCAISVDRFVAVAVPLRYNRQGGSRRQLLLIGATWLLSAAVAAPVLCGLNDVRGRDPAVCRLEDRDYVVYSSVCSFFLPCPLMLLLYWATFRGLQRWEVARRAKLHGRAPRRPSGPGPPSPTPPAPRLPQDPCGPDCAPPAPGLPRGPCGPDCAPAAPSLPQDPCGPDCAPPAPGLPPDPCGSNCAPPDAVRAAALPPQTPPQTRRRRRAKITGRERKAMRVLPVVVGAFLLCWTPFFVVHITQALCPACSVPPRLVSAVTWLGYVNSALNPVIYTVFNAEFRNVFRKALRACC
The test is described as follows: Displacement of [3H]methylspiperone from human dopamine D4 receptor at 1 uM by CEREP assay.

In test [17] the target is T5, D(3) dopamine receptor (Homo sapiens, UniProt P35462). The experiment in a line: Displacement of [3H]7-OH-DPAT from human dopamine D3 receptor at 1 uM by CEREP assay.
T5 sequence (P35462 whole entry): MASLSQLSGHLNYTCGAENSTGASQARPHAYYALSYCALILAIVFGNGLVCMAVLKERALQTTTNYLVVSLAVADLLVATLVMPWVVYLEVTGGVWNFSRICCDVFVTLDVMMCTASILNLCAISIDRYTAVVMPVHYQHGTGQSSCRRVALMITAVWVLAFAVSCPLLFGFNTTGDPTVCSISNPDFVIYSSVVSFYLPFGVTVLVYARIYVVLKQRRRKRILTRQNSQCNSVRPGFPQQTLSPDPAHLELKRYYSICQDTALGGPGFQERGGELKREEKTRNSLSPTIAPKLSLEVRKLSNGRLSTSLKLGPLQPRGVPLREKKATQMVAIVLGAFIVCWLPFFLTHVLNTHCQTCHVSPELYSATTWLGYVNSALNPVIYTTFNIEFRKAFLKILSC
For test [18], the target named is 5-hydroxytryptamine receptor 2A (Homo sapiens, UniProt P28223). The experiment in a line: Displacement of [3H]ketanserin from human 5-HT2A by CEREP assay. The following applies: read-out: Ki(app).
Sequence of 5-hydroxytryptamine receptor 2A (P28223 whole entry): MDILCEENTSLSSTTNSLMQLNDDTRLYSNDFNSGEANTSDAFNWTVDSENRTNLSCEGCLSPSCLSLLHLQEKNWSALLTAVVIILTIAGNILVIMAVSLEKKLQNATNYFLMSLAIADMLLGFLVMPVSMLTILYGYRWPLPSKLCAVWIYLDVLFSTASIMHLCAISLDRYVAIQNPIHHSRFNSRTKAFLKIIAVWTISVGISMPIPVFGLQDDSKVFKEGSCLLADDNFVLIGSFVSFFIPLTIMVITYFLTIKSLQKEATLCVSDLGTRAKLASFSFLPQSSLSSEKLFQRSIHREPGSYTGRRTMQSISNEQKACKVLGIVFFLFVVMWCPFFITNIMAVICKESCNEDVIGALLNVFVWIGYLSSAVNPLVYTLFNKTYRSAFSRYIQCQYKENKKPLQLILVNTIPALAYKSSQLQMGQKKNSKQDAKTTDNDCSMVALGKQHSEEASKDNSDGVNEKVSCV
In test [19] the target is T6, 5-hydroxytryptamine receptor 1A (Homo sapiens, UniProt P08908).
T6 sequence (P08908 whole entry): T3 sequence (whole entry)
The experiment in a line: Displacement of [3H]8- OH-DPAT from human 5-HT1A by CEREP assay. The following applies: read-out: Ki(app).

For test [20], the system named is Rattus norvegicus. The test is described as follows: Reduction in spontaneous locomotor activity in Sprague-Dawley rat at 33 umol/kg, sc measured after 15 to 60 mins relative to saline-treated control. In kind it is functional. More on the design: scale not given: the % may be the effect or the level left.
In test [21] the test system is Rattus norvegicus. The test is described as follows: Decrease in 5-HIAA level in Sprague-Dawley rat striatum at 33 umol/kg, sc by HPLC analysis relative to saline-treated control. The test is classed as functional. Further details: scale not given: the % may be the effect or the level left.
Test [22] relates to Rattus norvegicus. The experiment in a line: Increase in DOPAC level in Sprague-Dawley rat striatum at 33 umol/kg, sc by HPLC analysis relative to saline-treated control. The test is classed as functional.
For test [23], the species on record is Homo sapiens. The test is described as follows: Selectivity ratio of Ki(app) for human low affinity Dopamine D2S receptor to Ki(app) for human high affinity Dopamine D2S receptor.
Test [24] has as its system Rattus norvegicus. The test is described as follows: Inhibition of MK-801-induced hyperlocomotion in sc dosed Sprague-Dawley rat sc measured after 15 to 60 mins relative to saline-treated control. In kind it is functional.
In test [25] the test system is Rattus norvegicus. The experiment in a line: Inhibition of d-amphetamine-induced hyperlocomotion in sc dosed Sprague-Dawley rat sc measured after 15 to 60 mins relative to saline-treated control. The test is classed as functional.
In test [26] the target is T5, D(3) dopamine receptor. The experiment in a line: Displacement of [3H]7-OH-DPAT from human dopamine D3 receptor by CEREP assay. As to conditions: read-out: Ki(app).
Test [27] addresses 5-hydroxytryptamine receptor 6 (Homo sapiens, UniProt P50406). The test is described as follows: Displacement of [3H]LSD from human 5-HT6 receptor.
For test [28], the target named is T7, Alpha-2A adrenergic receptor (Homo sapiens, UniProt P08913).
T7 sequence (P08913 whole entry): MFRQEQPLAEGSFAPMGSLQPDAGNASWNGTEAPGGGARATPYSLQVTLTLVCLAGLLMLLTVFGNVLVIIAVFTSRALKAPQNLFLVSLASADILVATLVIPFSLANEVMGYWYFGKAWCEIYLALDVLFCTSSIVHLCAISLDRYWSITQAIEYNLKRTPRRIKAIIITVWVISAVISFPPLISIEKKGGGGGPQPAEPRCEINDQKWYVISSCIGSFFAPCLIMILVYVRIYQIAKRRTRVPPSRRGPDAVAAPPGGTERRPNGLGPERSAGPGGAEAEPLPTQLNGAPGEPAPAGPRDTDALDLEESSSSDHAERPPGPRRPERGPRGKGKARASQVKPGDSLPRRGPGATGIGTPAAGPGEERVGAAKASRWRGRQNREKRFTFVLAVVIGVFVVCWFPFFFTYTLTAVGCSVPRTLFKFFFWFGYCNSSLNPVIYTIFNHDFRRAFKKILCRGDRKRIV
The experiment in a line: Displacement of [3H]UK 14.304 from human adrenergic alpha2A receptor. As to conditions: read-out: Ki(app).

Test [29] deals with Rattus norvegicus. The test is described as follows: Decrease in 5-HIAA level in Sprague-Dawley rat striatum at 37 umol/kg, sc by HPLC analysis relative to saline-treated control. The test is classed as functional. More on the design: scale not given: the % may be the effect or the level left.
Test [30] concerns Rattus norvegicus. The experiment in a line: Increase in DOPAC level in Sprague-Dawley rat striatum at 37 umol/kg, sc by HPLC analysis relative to saline-treated control. The test is classed as functional.
The subject of test [31] is Rattus norvegicus. The test is described as follows: Reduction in spontaneous locomotor activity in Sprague-Dawley rat at 37 umol/kg, sc measured after 15 to 60 mins relative to saline-treated control. In kind it is functional. More on the design: scale not given: the % may be the effect or the level left.

This note sets out measurements from ChEMBL document CHEMBL2203152, “Systematic in vivo screening of a series of 1-propyl-4-arylpiperidines against dopaminergic and serotonergic properties in rat brain: a scaffold-jumping approach” (J Med Chem, 2012).

Broadly, the ED50 is the midpoint of the dose-response relation. By inhibition is commonly meant the share of the control response that was lost under treatment. A word on the IC50: it is the concentration that inhibits the measured activity by half.

T2 sequence (P14416 whole entry): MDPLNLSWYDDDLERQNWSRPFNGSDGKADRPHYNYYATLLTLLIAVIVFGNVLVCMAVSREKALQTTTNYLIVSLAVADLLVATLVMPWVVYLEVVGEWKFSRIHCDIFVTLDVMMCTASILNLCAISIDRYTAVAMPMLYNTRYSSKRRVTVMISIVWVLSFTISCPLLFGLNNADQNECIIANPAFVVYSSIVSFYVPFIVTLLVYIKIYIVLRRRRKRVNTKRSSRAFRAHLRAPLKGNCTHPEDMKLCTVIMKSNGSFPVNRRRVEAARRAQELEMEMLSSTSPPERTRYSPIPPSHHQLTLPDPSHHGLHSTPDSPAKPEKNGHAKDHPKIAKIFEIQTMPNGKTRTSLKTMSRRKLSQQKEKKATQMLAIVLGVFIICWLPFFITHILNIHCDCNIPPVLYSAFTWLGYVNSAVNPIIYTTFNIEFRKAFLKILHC
Sequence of Sodium-dependent dopamine transporter (Homo sapiens) (Q01959 whole entry): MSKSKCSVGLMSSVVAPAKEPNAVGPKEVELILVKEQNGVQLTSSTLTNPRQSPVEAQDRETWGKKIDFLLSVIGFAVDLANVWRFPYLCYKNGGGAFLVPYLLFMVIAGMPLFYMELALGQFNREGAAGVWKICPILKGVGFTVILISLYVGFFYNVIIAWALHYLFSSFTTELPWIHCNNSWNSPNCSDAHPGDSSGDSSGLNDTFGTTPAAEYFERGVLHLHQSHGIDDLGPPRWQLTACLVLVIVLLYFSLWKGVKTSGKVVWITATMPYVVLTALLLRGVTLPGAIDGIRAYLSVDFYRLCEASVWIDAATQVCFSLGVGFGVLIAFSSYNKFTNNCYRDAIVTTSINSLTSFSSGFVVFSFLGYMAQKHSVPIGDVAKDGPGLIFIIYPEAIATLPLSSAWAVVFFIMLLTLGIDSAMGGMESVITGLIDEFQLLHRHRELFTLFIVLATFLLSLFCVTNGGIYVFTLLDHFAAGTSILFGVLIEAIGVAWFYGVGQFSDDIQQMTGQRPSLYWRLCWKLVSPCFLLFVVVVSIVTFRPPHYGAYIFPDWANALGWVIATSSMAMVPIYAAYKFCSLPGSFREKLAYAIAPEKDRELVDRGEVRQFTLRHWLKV
Sequence of 5-hydroxytryptamine receptor 6 (P50406 whole entry): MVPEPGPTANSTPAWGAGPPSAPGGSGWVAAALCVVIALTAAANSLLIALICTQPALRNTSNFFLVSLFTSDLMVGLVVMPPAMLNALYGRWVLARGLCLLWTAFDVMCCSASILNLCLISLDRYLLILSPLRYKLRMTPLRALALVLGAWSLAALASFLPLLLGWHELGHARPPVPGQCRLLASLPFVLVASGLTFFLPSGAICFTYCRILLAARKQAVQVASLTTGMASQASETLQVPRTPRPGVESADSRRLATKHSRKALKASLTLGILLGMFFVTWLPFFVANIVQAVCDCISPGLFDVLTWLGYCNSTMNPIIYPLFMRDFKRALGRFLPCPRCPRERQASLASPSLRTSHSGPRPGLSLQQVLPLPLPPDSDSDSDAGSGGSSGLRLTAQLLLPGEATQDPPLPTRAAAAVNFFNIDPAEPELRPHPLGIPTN

Regarding `Cc1nc2n(c(=O)c1CCN1CCC(c3noc4cc(F)ccc34)CC1)CCCC2` [RISPERIDONE], the values for the Activity in test [1], in test [2] and in test [3] were 115%, 347% and 11%, respectively. For the same compound, the ED50 in test [4] came to 0.5 µmol/kg.
Turning to `CCCN1CC=C(c2c[nH]c3ccc(Cl)cc23)CC1`, the Activity in test [5] was 80 nM; in [6] it was 260 nM.
On to `CCCN1CCC(c2coc3ccccc23)CC1`, for which the Activity is 75% in test [7], 84% in test [8] and 35% in test [9]. For the same compound, the Ki in test [10] (read-out: Ki(app)) amounted to 92 nM; in test [11] it was 827 nM; in test [12], 803 nM; in test [13] it was 2720 nM. The inhibition in [14] worked out at 49%; in test [15], 34%; in [16], 26%; in test [17], 28%.
As for `CCCN1CCC(n2c(=O)[nH]c3cc(Cl)ccc32)CC1`, the Ki in test [18] came out at 21.6 µM; in test [19], 5.71 µM; in test [11], 3510 nM; in test [12] it was 456 nM; in test [13] it was 371 nM; in [26] it was 2520 nM. In test [28], the Ki stood at 17.2 µM. Moreover, the Activity was 54% in test [20], 101% in [21] and 334% in [22]. It took a dose of 7 µmol/kg to reach the 50% effect level in test [4] (ED50). Also, the IC50 in test [10] and in test [27] was over 580 µM in each case. Further, the Ratio Ki(app) in test [23] stood at 0.8. Besides, the “inhibition (INH)” value in test [24] was determined as 42%; in test [25] it was 4%. Moreover, the inhibition amounted to 15% in test [15] and 17% in test [16].
On to `O=C(NCCN1CCOCC1)c1ccc(Cl)cc1` [MOCLOBEMIDE], for which the Activity is listed as 81% in test [29], 18% in [30] and 164% in test [31].
